ChEMBL document CHEMBL5055626 (J Med Chem, 2021)
Activity calls are given as the source filed them. No cut-off for these calls is given here. Where a SMILES comes first, the peptide text is derived from it. Bridges are numbered along the chain shown (N, C = ends).

Legend:
[1] = Antagonist activity at human nAChR alpha7 R186K mutant expressed in xenopus oocytes assessed as inhibition of Ach- induced response at -70 mV holding potential preincubated for 5 mins followed by Ach stimulation by voltage-clamp based electrophysiological method; assay type: cell-based; details: Oocyte
[2] = target: Neuronal acetylcholine receptor; alpha4/beta4 (Rattus norvegicus, UniProt P09483+P12392); assay: Antagonist activity at rat alpha4beta4 nAChR expressed in xenopus oocytes assessed as inhibition of Ach- induced response at -70 mV holding potential preincubated for 5 mins followed by Ach stimulation by voltage-clamp based electrophysiological method; assay type: cell-based, Oocyte
Chain of Neuronal acetylcholine receptor; alpha4/beta4 (P09483 whole entry): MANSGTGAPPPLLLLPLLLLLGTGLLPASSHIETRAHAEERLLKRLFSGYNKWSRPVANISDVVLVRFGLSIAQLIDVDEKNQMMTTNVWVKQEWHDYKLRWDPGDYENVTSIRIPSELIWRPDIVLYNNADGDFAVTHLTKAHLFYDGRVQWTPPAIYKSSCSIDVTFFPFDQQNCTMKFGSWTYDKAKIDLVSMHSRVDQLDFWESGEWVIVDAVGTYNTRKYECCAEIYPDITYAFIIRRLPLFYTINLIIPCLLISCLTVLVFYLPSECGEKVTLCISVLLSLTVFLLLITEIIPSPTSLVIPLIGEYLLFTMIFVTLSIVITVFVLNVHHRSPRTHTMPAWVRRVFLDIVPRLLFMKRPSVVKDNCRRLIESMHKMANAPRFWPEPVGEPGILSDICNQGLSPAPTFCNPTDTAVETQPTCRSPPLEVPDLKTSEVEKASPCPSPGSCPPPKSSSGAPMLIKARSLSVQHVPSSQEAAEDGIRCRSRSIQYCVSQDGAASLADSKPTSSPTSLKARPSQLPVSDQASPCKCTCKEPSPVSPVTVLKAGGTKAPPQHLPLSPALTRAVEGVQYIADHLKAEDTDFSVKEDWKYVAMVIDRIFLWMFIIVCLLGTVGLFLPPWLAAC
Chain of Neuronal acetylcholine receptor; alpha4/beta4 (P12392 whole entry): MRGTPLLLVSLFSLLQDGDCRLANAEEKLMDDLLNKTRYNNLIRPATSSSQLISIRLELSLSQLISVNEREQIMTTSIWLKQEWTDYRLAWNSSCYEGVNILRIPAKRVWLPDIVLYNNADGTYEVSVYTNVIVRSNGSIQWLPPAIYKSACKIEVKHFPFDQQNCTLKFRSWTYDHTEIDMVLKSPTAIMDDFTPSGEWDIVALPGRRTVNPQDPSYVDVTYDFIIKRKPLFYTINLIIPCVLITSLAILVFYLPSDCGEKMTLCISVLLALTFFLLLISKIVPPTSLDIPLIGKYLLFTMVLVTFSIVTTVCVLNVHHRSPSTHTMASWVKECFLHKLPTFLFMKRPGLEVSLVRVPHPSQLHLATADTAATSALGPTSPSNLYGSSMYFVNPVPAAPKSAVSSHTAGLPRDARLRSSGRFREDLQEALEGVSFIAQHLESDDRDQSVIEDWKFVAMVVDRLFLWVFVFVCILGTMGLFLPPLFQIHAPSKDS

[3] = target: Neuronal acetylcholine receptor; alpha3/beta4 (Rattus norvegicus, UniProt P04757+P12392); assay: Antagonist activity at rat alpha3beta4 nAChR expressed in xenopus oocytes assessed as inhibition of Ach- induced response at -70 mV holding potential preincubated for 5 mins followed by Ach stimulation by voltage-clamp based electrophysiological method; assay type: cell-based, Oocyte
Chain of Neuronal acetylcholine receptor; alpha3/beta4 (P04757 whole entry): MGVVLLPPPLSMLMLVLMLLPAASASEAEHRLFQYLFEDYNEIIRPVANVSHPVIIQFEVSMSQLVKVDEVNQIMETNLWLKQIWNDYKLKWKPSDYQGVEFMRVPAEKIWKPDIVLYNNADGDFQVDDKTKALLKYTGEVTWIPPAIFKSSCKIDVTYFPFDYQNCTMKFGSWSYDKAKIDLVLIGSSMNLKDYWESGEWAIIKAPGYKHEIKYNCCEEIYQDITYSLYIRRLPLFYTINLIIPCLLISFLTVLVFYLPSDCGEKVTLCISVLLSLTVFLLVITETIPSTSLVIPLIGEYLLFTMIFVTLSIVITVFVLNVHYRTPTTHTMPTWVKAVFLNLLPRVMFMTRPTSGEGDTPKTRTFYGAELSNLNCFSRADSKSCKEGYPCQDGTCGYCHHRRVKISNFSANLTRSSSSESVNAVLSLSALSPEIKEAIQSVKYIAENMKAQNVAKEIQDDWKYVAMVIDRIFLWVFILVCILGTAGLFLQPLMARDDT
Chain of Neuronal acetylcholine receptor; alpha3/beta4 (P12392 whole entry): as the sequence (P12392 whole entry) above

[4] = Antagonist activity at rat nAChR alpha7 Q141H mutant expressed in xenopus oocytes assessed as inhibition of Ach- induced response at -70 mV holding potential preincubated for 5 mins followed by Ach stimulation by voltage-clamp based electrophysiological method; assay type: cell-based; details: Oocyte
[5] = target: Neuronal acetylcholine receptor; alpha4/beta2 (Rattus norvegicus) (UniProt P09483+P12390); assay: Antagonist activity at rat alpha4beta2 nAChR expressed in xenopus oocytes assessed as inhibition of Ach- induced response at 10 uM at -70 mV holding potential preincubated for 5 mins followed by Ach stimulation by voltage-clamp based electrophysiological method; assay type: cell-based; details: Oocyte
[6] = Antagonist activity at rat nAChR alpha7 A112S mutant expressed in xenopus oocytes assessed as inhibition of Ach- induced response at -70 mV holding potential preincubated for 5 mins followed by Ach stimulation by voltage-clamp based electrophysiological method; assay type: cell-based; details: Oocyte
[7] = Antagonist activity at rat nAChR alpha7 N77T mutant expressed in xenopus oocytes assessed as inhibition of Ach- induced response at -70 mV holding potential preincubated for 5 mins followed by Ach stimulation by voltage-clamp based electrophysiological method; assay type: cell-based; details: Oocyte

Compound: C[C@@H]1NC(=O)[C@@H]2CSSC[C@H](NC(=O)CN)C(=O)N[C@@H](CSSC[C@@H](C(N)=O)NC(=O)[C@H](Cc3cnc[nH]3)NC(=O)[C@H](CCC(=O)O)NC(=O)[C@H](Cc3cnc[nH]3)NC1=O)C(=O)N[C@@H](CO)C(=O)N[C@@H](CC(N)=O)C(=O)N1CCC[C@H]1C(=O)N1CCC[C@H]1C(=O)N2 (H-GCCSNPPCAHEHC-NH2; disulfide 2-8, 3-13)
- IC50 [1]: 1130 nM
- IC50 [2]: > 10000 nM
- IC50 [3]: > 10000 nM
- IC50 [4]: 300 nM
- inhibition [5]: inactive
- IC50 [6]: 160 nM
- IC50 [7]: 160 nM
